Measured values from patent US6825191B2, “Benzodiazepine derivatives” (Ajinomoto Co., Inc., priority 2000, dated 2004).
Where a name gives a salt, the structure may show the parent alone.

Columns and labels:
human thrombin = molecular target: T1, human thrombin (Homo sapiens, UniProt P00734); experiment: Determination of thrombin-inhibiting activity (chromogenic substrate S-2238, initial rate); type: biochemical; conditions: negative logarithm of concentration inhibiting 50% of initial rate, tris hydrochloride buffer pH 8.4, room temperature; for IC50: read-out: Thrombin-inhibiting activity (pIC50) (converted)
T1 construct: solution of human thrombin (a product of SIGMA Co.); purchased SIGMA Co
Procedure: Determination of Thrombin-inhibiting Activity
130 μL of 100 mM tris hydrochloride buffer adjusted to pH 8.4 was added to 10 μl of an aqueous solution of a test compound. Then 10 μl of a solution of human thrombin (a product of SIGMA Co.) adjusted to 2 units/ml with tris hydrochloride buffer of pH 8.4 was added to the resultant mixture. After the incubation at room temperature for 10 minutes, 50 μl of a solution of D-phenylalanine-L-pipecolyl-L-arginine-P-nitroanilide dihydrochloride (S-2238; a product of Daiichi Kagaku Yakuhin Co.) adjusted to 0.4 mM with tris hydrochloride buffer of pH 8.4 was added thereto. The absorbance was determined and then the initial reaction rate was determined. A control was prepared in the same manner as that described above except that the solution of the compound to be tested was replaced with 10 μl of tris hydrochloride buffer adjusted to pH 8.4. The absorbance was determined with MICROPLATE READER Model 3550-UV (a product of BIO RAD) at a wave length of 405 nm at intervals of 15 seconds for 16 minutes. The negative logarithm (pIC50) of a concentration of the test compound which inhibits 50% of the activity (initial rate) of the thrombin in the absence of the test compound was determined, and employed as the index of the activity of inhibiting thrombin.

blood plasma = experiment: Determination of blood anticoagulating activity by prothrombin time (PT) determination method; type: biochemical, human; conditions: negative logarithm of concentration which elongated PT of the control to twice as long; blood plasma of healthy people
Procedure: Determination of Blood Anticoagulating Activity
The blood anticoagulating activity was determined by a prothrombin time (PT) determination method. The PT was determined as follows: The blood was taken from healthy people. 3.8% aqueous trisodium citrate solution was added to the blood in a volume ratio of 1:10. The blood plasma was separated by the centrifugation. 5 μl of DMSO solution containing a test compound was added to 45 μl of the blood plasma. After the incubation apt room temperature for 2 minutes, a test tube containing the blood plasma solution was placed in Sysmex CA-3000 fully automatic blood coagulation determination device (a product of Toa Medical Electronics Co., Ltd), and incubated at 37° C. for 3 minutes. 100 μl of Sysmex PT II (rabbit brain tissue thromboplastin, 13.2 mM calcium chloride; a product of Toa Medical Electronics Co., Ltd) was fed into the test tube. PT was automatically determined with the device. A sample containing 5 μl of DMSO in place of the solution of the test compound was used as the control. The negative logarithm (pPT2) of the concentration of the test compound which elongated PT of the control to the twice as long was determined, and employed as the index of the blood anticoagulating activity.

[1] = molecular target: T2, activated human blood coagulation factor X (Homo sapiens, UniProt P00742); experiment: Determination of activity of inhibiting the activated blood-coagulation factor X (chromogenic substrate, initial rate); type: biochemical; conditions: negative logarithm of concentration inhibiting 50% of initial rate, tris hydrochloride buffer pH 8.4, room temperature; for IC50: read-out: Activity of inhibiting activated blood coagulation factor X (pIC50) (converted)
T2 construct: purchased Enzyme Research Co
T2 sequence (P00742 235-488 limits assumed): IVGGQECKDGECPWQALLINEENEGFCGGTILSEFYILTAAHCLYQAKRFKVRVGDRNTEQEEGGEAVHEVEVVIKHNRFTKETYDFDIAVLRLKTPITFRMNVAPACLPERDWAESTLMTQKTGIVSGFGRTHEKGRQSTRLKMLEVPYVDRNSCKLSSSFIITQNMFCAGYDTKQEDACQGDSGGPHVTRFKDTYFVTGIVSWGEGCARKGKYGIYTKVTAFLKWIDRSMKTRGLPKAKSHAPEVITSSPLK
T2 sequence (P00742 41-179 partner limits assumed): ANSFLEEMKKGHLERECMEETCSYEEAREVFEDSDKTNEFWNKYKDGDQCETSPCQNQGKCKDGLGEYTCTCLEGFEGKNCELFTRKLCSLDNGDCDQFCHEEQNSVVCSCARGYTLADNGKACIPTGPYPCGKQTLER
Procedure: Determination of Activity of inhibiting the Activated Blood-coagulation Factor X
130 μl of 100 mM tris hydrochloride buffer adjusted to pH 8.4 was added to 10 μl of an aqueous solution of a compound to be tested. Then 10 μl of a 0.5 unit/ml solution of activated human blood coagulation factor X (a product of Enzyme Research Co.) in tris hydrochloride buffer of pH 8.4 was added to the resultant mixture. After the incubation at room temperature for 10 minutes, 50 μl of a solution of N-benzoyl-L-isoleucyl-L-glutamyl-glycyl-L-arginyl-P-nitroanilide hydrochloride (a product of Peptide Institute Inc.) adjusted to 0.8 mM with tris hydrochloride (pH 8.4) was added thereto. The a absorbance was determined and then the initial reaction rate was determined. A control was prepared in the same manner as that described above except that the solution of the compound to be tested was replaced with 10 μl of tris hydrochloride buffer adjusted to pH 8.4. The absorbance was determined with MICROPLATE READER Model 3550-UV (a product of BIO RAD) at a wave length of 405 nm at intervals of 15 seconds for 16 minutes.

Row | Thrombin-inhibiting activity (pIC50) (human thrombin) | Activity of inhibiting activated blood coagulation factor X (pIC50) [1] | IC50 (human thrombin) [nM] | IC50 [1] [nM] | Molecule | Human blood anticoagulating activity (pPT2) (blood plasma)
1 | <4.0 | 6.4 |  |  | 4-(4-chlorobenzoyl)-1-[4-(1-acetoimidoyl)-4-piperidyloxy]benzyl]-1,3,4,5-tetrahydrobenzo[e][1,4]diazepin-2-on trifluoroacetate [Compd. of Ex. 27] | 4.8
2 |  |  | > 100000 | 794 | O=C(c1ccc(Cl)s1)N1CC(=O)N(CC2CCN(c3ccncc3)CC2)c2ccccc2C1 [Compd. of Ex. 24, 4-(5-chlorothiophene-2-carbonyl)-1-[1-(4-pyridyl)-4-piperidylmethyl]-1,3,4,5-tetrahydrobenzo[e][1,4]diazepin-2-on trifluoroacetate] | 
3 |  |  | > 100000 | 251 | CN1CCN=C1c1ccc(CN2C(=O)CN(C(=O)c3ccc(Cl)cc3)Cc3ccccc32)cc1.O=C(O)C(F)(F)F [Compd. of Ex. 125, 4-(4-chlorobenzoyl)-1-[4-(1-methyl-4,5-dihydro-1H-imidazol-2-yl)benzyl]-1,3,4,5-tetrahydrobenzo[e][1,4]-diazepin-2-on trifluoroacetate] | 5.6
4 |  |  | 39800 | 63.1 | CC(C)N1CCN(C(=O)CCc2ccc3c(c2)N(Cc2ccc(C(=O)N4CC=CC4)cc2)C(=O)CN(C(=O)c2ccc(Cl)cc2)C3)CC1.O=C(O)C(F)(F)F [Compd. of Ex. 115, 4-(4-chlorobenzoyl)-1-[4-(2,5-dihydro-1H-pyrrol-1-ylcarbonyl)benzyl]-8-[3-(4-isopropyl-1-piperazinyl)-3-oxo-propyl]-1,3,4,5-tetrahydrobenzo[e][1,4]diazepin-2-on trifluoroacetate] | 5.4
5 | <4.0 | 7.1 |  |  | CN1CCN=C1c1ccc(CN2C(=O)CN(C(=O)c3ccc(Cl)cc3)Cc3ccc(C(=O)O)cc32)cc1.O=C(O)C(F)(F)F [Compd. of Ex. 203, 4-(4-chlorobenzoyl)-2-oxo-1-[4-(1-methyl-4,5-dihydro-1H-imidazol-2-yl)benzyl]-2,3,4,5-tetrahydro-1H-benzoyl[e][1,4]-diazepine-8-carboxylic acid trifluoroacetate] | 5.5
6 |  |  | > 100000 | 316 | CC(C)N1CCC(CCN2C(=O)CN(C(=O)c3ccc(Cl)cc3)Cc3ccccc32)CC1.O=C(O)C(F)(F)F [Compd. of Ex. 169, 4-(4-chlorobenzoyl)-1-[2-(1-isopropyl-4-piperidinyl)ethyl]-1,3,4,5-tetrahydrobenzo[e][1,4]diazepin-2-on trifluoroacetate] | 5.4
7 |  |  | 50100 | 31.6 | O=C(c1ccc(CN2C(=O)CN(C(=O)c3ccc(Cl)cc3)Cc3ccccc32)cc1)N1CC=CC1 [Compd. of Ex. 49, 1-[4-(2,5-dihydro-1H-pyrrol-1-ylcarbonyl)benzyl]-4-(4-chlorobenzoyl)-1,3,4,5-tetrahydrobenzo[e][1,4]-diazepin-2-on] | 5.0
8 |  |  | > 100000 | 398 | O=C(O)C(F)(F)F.O=C(c1ccc(Cl)cc1)N1CC(=O)N(CC2CCN(c3ccncc3)CC2)c2ccccc2C1 [Compd. of Ex. 2, 4-(4-chlorobenzoyl)-1-[1-(4-pyridyl)-4-piperidylmethyl]-1,3,4,5-tetrahydrobenzo[e][1,4]diazepin-2-on trifluoroacetate] | 4.9
9 | <4.0 | 6.7 |  |  | CC(=N)N1CCC(Oc2ccc(CN3C(=O)CN(C(=O)c4ccc(Cl)cc4)Cc4c(Cl)cccc43)cc2)CC1.O=C(O)C(F)(F)F [Compd. of Ex. 39, 6-chloro-4-(4-chlorobenzoyl)-1-[4-(1-(1-acetimidoyl)-4-piperidyloxy)benzyl]-1,3,4,5-tetrahydrobenzo[e][1,4]diazepin-2-on trifluoroacetate] | 4.8
10 |  |  | 79400 | 200 | CN1CCN=C1c1ccc(CN2C(=O)CN(C(=O)c3ccc(Cl)cc3)Cc3ccc(CCC(=O)N4CCOCC4)cc32)cc1.O=C(O)C(F)(F)F [Compd. of Ex. 144, 4-(4-chlorobenzoyl)-1-[4-(1-methyl-4,5-dihydro-1H-imidazol-2-yl)benzyl]-8-[3-(4-morpholinyl)-3-oxopropyl]-1,3,4,5-tetrahydrobenzo[e][1,4]diazepin-2-on mono(trifluoroacetate)] | 5.6
11 |  |  | 63100 | 79.4 | O=C(O)C(F)(F)F.O=C(c1ccc(CN2C(=O)CN(C(=O)c3ccc(Cl)cc3)Cc3ccc(CCCN4CCCCC4)cc32)cc1)N1CC=CC1 [Compd. of Ex. 93, 8-(3-piperidin-1-yl-propyl)-1-[4-(2,5-dihydro-1H-pyrrol-1-ylcarbonyl)benzyl]-4-(4-chlorobenzoyl)-1,3,4,5-tetrahydro-benzo[e][1,4]diazepin-2-on trifluoroacetate] | 5.5
12 |  |  | > 100000 | 501 | O=C(O)C(F)(F)F.O=C(c1ccc(Br)cc1)N1CC(=O)N(CC2CCN(c3ccncc3)CC2)c2ccccc2C1 [Compd. of Ex. 9, 4-(4-bromobenzoyl)-1-[1-(4-pyridyl)-4-piperidylmethyl]-1,3,4,5-tetrahydrobenzo[e][1,4]diazepin-2-on trifluoroacetate] | 4.9
13 |  |  | 39800 | 794 | CC(C)N1CCC(CN2C(=O)CN(C(=O)c3ccc(Cl)cc3)Cc3ccccc32)CC1.O=C(O)C(F)(F)F [Compd. of Ex. 142, 4-(4-chlorobenzoyl)-1-[(1-isopropyl-4-piperidinyl)methyl]-1,3,4,5-tetrahydrobenzo[e][1,4]diazepin-2-on trifluoroacetate] | 5.5
14 |  |  | > 100000 | 200 | CCOC(=O)c1ccc2c(c1)N(Cc1ccc(C3=[N+](C)CCN3C)cc1)C(=O)CN(C(=O)c1ccc(Cl)cc1)C2.O=C([O-])C(F)(F)F [Compd. of Ex. 206, 2-[4-((4-(4-chlorobenzoyl)-8-(ethoxycarbonyl)-2-oxo-2,3,4,5-tetrahydro-1H-1,4-benzodiazepin-1-yl)methyl)phenyl]-1,3-dimethyl-4,5-dihydro-1H-imidazol-3-ium trifluoroacetate] | 5.5
15 | <4.0 | 6.5 |  |  | CCOC(=O)c1ccc2c(c1)N(Cc1ccc(C3=NCCN3C)cc1)C(=O)CN(C(=O)c1ccc(Cl)cc1)C2.O=C(O)C(F)(F)F [Compd. of Ex. 204, ethyl 4-(4-chlorobenzoyl)-2-oxo-1-[4-(1-methyl-4,5-dihydro-1H-imidazol-2-yl)benzyl]-2,3,4,5-tetrahydro-1H-benzoyl[e][1,4]diazepine-8-carboxylate trifluoroacetate] | 5.2
16 |  |  |  | 39.8 | O=C(O)CCc1ccc2c(c1)N(Cc1ccc(C(=O)N3CC=CC3)cc1)C(=O)CN(C(=O)c1ccc(Cl)cc1)C2 [Compd. of Ex. 65, 3-[4-(4-chlorobenzoyl)-2-oxo-1-[4-(2,5-dihydro-1H-pyrrol-1-ylcarbonyl)benzyl]-2,3,4,5-tetrahydro-1H-benzo[e][1,4]-diazepin-8-yl]propionic acid] | 4.7
